# Measurements taken from patent publication US6482771B2, “Synergistic herbicidal methods and compositions” (BASF Aktiengesellschaft, priority 2000, dated 2002).
# Experiments:
# Bromus diandrus = assay: Field plot evaluation of density reduction in Bromus diandrus (great bromegrass); assay type: in vivo; details: 28 g/ha, weed count vs untreated plot
# Method: (§1) In the following examples, synergism is determined by the Colby (Colby, S. R., Weeds, 1967(15), p. 20-22) method, i.e. the expected (or predicted) response of the combination is calculated by taking the product of the observed response for each individual component of the combination when applied alone divided by 100 and subtracting this value from the sum of the observed response for each component when applied alone. Synergism of the combination is then determined by comparing the observed response of the combination to the expected (or predicted) response as calculated from the observed responses of each individual component alone. If the observed response of the combination is greater than the expected (or predicted) response then the combination is said to be synergistic.
# All trials employ standard accepted weed science procedures. Applications are made to 2×10M plots with a propane gas-powered small plot boomspray applicator. Test design is a modified randomized complete block design with four replications. Applications are made at 2-6 weeks after the imidazolinone-tolerant crop is sown. […]
# Using essentially the same procedure and test solutions described in Example 1, the following evaluation is carried out. In this evaluation, density reduction is measured by counting the Bromus diandrus weeds in the treated plots and comparing the count to that of the untreated plot. […]
# Hordeum leporinum = assay: Field plot evaluation of biomass reduction and seedhead suppression in Hordeum leporinum (wild barley), post-emergence in an imidazolinone-tolerant crop; assay type: in vivo; details: 28 g/ha; for Seed Head Red. Observed: seedhead count vs untreated plot; for Bio. Red. Observed: visual rating vs untreated plots, average of 4 replicates
# Method: as §1
# All trials employ standard accepted weed science procedures. Applications are made to 2×10M plots with a propane gas-powered small plot boomspray applicator. Test design is a modified randomized complete block design with four replications. Applications are made at 2-6 weeks after the imidazolinone-tolerant crop is sown.
# In this evaluation biomass reduction is determined by visually rating the numbers and bulk of Hordeum leporinum in the treatment plots as compared to the numbers and bulk in the untreated plots. Seedhead suppression is measured by counting the seedheads of Hordeum leporinum in each of the treated plots and comparing to the number of seedheads in the untreated plot.
# The test solutions are prepared by tank-mixing commercial formulations. All treatments also contain 0.5% v/v of an ethoxylated vegetable oil.
# The treated plots are examined at intervals during the growing season and rated for percent biomass reduction and percent seedhead suppression. The data shown are an average of the replicates for that treatment. The Colby method of analysis is used to determine the resultant biological effect of the combination treatment as compared to the biological effect of each component when applied alone.
smiles,measurement,setting,value
"COCc1cnc(C2=NC(C)(C(C)C)C(=O)N2)c(C(=O)O)c1 (stereo not drawn) [imazamox, 2-(4-isopropyl-4-methyl-5-oxo-2-imidazolin-2-yl)-5-(methoxymethyl)-nicotinic acid]",Density Red. Obs.,Bromus diandrus,98.96%
same,Seed Head Red. Observed,Hordeum leporinum,76.33%
same,Bio. Red. Observed,Hordeum leporinum,80%
"Cc1cnc(C2=NC(C)(C(C)C)C(=O)N2)c(C(=O)O)c1 (stereo not drawn) [imazapic, 2-(4-isopropyl-4-methyl-5-oxo-2-imidazolin-2-yl)-5-methylnicotinic acid]",Density Red. Obs.,Bromus diandrus,−17.29%
same,Seed Head Red. Observed,Hordeum leporinum,5.55%
same,Bio. Red. Observed,Hordeum leporinum,30%
